Measurements published in publication PMC10099431 (ACS Omega, 2023).
Like-named read-outs stand apart in the source and are kept apart here.

Assays:
[1] = type: physicochemical; details: 298.15 K, 0.1 MPa
[2] = cited from earlier work
[3] = type: physicochemical; details: 298.15 K; for Gibbs energy of transfer of RST from neat water to the mixture / ΔsolnG°, standard Gibbs free energy of dissolution: 0.1 MPa

Compound: CC(C)c1nc(N(C)S(C)(=O)=O)nc(-c2ccc(F)cc2)c1/C=C/[C@@H](O)C[C@@H](O)CC(=O)[O-].CC(C)c1nc(N(C)S(C)(=O)=O)nc(-c2ccc(F)cc2)c1/C=C/[C@@H](O)C[C@@H](O)CC(=O)[O-].[Ca+2] [RST, (E)-7-[4-(4-fluorophenyl)-6-isopropyl-2-[methyl(methylsulfonyl)amino]pyrimidin-5-yl]-(3R,5S)-3,5-dihydroxyhept-6-enoic acid, calcium salt (2:1)]
- G1,3 (Kirkwood–Buff integral, PEG400–RST) ([1]; x1 = 0.60): –322.0 cm^3·mol^–1
- G2,3 (Kirkwood–Buff integral, water–RST) ([1]; x1 = 0.60): –621.8 cm^3·mol^–1
- Vcor (correlation volume) ([1]; x1 = 0.60): 4901 cm^3·mol^–1
- 100 δx1,3 (preferential solvation parameter of RST by PEG400) ([1]; x1 = 0.65): 1.55
- D (derivative of the Gibbs energy of transfer) ([1]; x1 = 0.65): –3.54 kJ·mol^–1
- G1,3 (Kirkwood–Buff integral, PEG400–RST) ([1]; x1 = 0.65): –321.5 cm^3·mol^–1
- G2,3 (Kirkwood–Buff integral, water–RST) ([1]; x1 = 0.65): –643.4 cm^3·mol^–1
- Vcor (correlation volume) ([1]; x1 = 0.65): 5144 cm^3·mol^–1
- 100 δx1,3 (preferential solvation parameter of RST by PEG400) ([1]; x1 = 0.70): 1.46
- D (derivative of the Gibbs energy of transfer) ([1]; x1 = 0.70): –3.21 kJ·mol^–1
- G1,3 (Kirkwood–Buff integral, PEG400–RST) ([1]; x1 = 0.70): –321.0 cm^3·mol^–1
- G2,3 (Kirkwood–Buff integral, water–RST) ([1]; x1 = 0.70): –664.5 cm^3·mol^–1
- Vcor (correlation volume) ([1]; x1 = 0.70): 5379 cm^3·mol^–1
- 100 δx1,3 (preferential solvation parameter of RST by PEG400) ([1]; x1 = 0.75): 1.31
- D (derivative of the Gibbs energy of transfer) ([1]; x1 = 0.75): –2.92 kJ·mol^–1
- G1,3 (Kirkwood–Buff integral, PEG400–RST) ([1]; x1 = 0.75): –320.4 cm^3·mol^–1
- G2,3 (Kirkwood–Buff integral, water–RST) ([1]; x1 = 0.75): –682.1 cm^3·mol^–1
- Vcor (correlation volume) ([1]; x1 = 0.75): 5607 cm^3·mol^–1
- 100 δx1,3 (preferential solvation parameter of RST by PEG400) ([1]; x1 = 0.80): 1.09
- D (derivative of the Gibbs energy of transfer) ([1]; x1 = 0.80): –2.67 kJ·mol^–1
- G1,3 (Kirkwood–Buff integral, PEG400–RST) ([1]; x1 = 0.80): –319.6 cm^3·mol^–1
- G2,3 (Kirkwood–Buff integral, water–RST) ([1]; x1 = 0.80): –691.4 cm^3·mol^–1
- Vcor (correlation volume) ([1]; x1 = 0.80): 5827 cm^3·mol^–1
- 100 δx1,3 (preferential solvation parameter of RST by PEG400) ([1]; x1 = 0.85): 0.83
- D (derivative of the Gibbs energy of transfer) ([1]; x1 = 0.85): –2.45 kJ·mol^–1
- G1,3 (Kirkwood–Buff integral, PEG400–RST) ([1]; x1 = 0.85): –318.5 cm^3·mol^–1
- G2,3 (Kirkwood–Buff integral, water–RST) ([1]; x1 = 0.85): –687.6 cm^3·mol^–1
- Vcor (correlation volume) ([1]; x1 = 0.85): 6039 cm^3·mol^–1
- 100 δx1,3 (preferential solvation parameter of RST by PEG400) ([1]; x1 = 0.90): 0.54
- D (derivative of the Gibbs energy of transfer) ([1]; x1 = 0.90): –2.26 kJ·mol^–1
- G1,3 (Kirkwood–Buff integral, PEG400–RST) ([1]; x1 = 0.90): –317.0 cm^3·mol^–1
- G2,3 (Kirkwood–Buff integral, water–RST) ([1]; x1 = 0.90): –668.0 cm^3·mol^–1
- Vcor (correlation volume) ([1]; x1 = 0.90): 6246 cm^3·mol^–1
- 100 δx1,3 (preferential solvation parameter of RST by PEG400) ([1]; x1 = 0.95): 0.25
- D (derivative of the Gibbs energy of transfer) ([1]; x1 = 0.95): –2.08 kJ·mol^–1
- G1,3 (Kirkwood–Buff integral, PEG400–RST) ([1]; x1 = 0.95): –315.3 cm^3·mol^–1
- G2,3 (Kirkwood–Buff integral, water–RST) ([1]; x1 = 0.95): –633.9 cm^3·mol^–1
- Vcor (correlation volume) ([1]; x1 = 0.95): 6447 cm^3·mol^–1
- 100 δx1,3 (preferential solvation parameter of RST by PEG400) ([1]; x1 = 1.00): 0.00
- D (derivative of the Gibbs energy of transfer) ([1]; x1 = 1.00): –1.93 kJ·mol^–1
- G1,3 (Kirkwood–Buff integral, PEG400–RST) ([1]; x1 = 1.00): –313.7 cm^3·mol^–1
- G2,3 (Kirkwood–Buff integral, water–RST) ([1]; x1 = 1.00): –590.9 cm^3·mol^–1
- Vcor (correlation volume) ([1]; x1 = 1.00): 6645 cm^3·mol^–1
- pKa ([2]; GastroPlus input parameter (Table 5)): 4
- hydrogen-bonding acceptor counts ([2]; GastroPlus input parameter): 10
- hydrogen-bonding donor counts ([2]; GastroPlus input parameter): 3
- maximum solubility in PEG400 ([2]; PEG400): 65.7 mg/g
- aqueous solubility ([2]; as reported in NLM PubChem): 8.86 × 10^–2 g/L
- solubility (mg/mL) in water at 25 (°C) ([2]; water, 25 °C, GastroPlus input parameter): 0.33 mg/mL
- Gibbs energy of transfer of RST from neat water to {PEG400 + water} mixtures, range ([3]; all mixtures): −2.39 to −14.24 kJ·mol^–1
- Gibbs energy of transfer of RST from neat water to the mixture ([3]; w1 = 0.00 (neat water)): 0.00 kJ·mol^–1
- ΔsolnG°, standard Gibbs free energy of dissolution ([3]; w1 = 0.00 (neat water)): 32.36 kJ·mol^–1
- Gibbs energy of transfer of RST from neat water to the mixture ([3]; w1 = 0.10 PEG400): –2.39 kJ·mol^–1
- ΔsolnG°, standard Gibbs free energy of dissolution ([3]; w1 = 0.10 PEG400): 29.97 kJ·mol^–1
- Gibbs energy of transfer of RST from neat water to the mixture ([3]; w1 = 0.20 PEG400): –3.53 kJ·mol^–1
- ΔsolnG°, standard Gibbs free energy of dissolution ([3]; w1 = 0.20 PEG400): 28.83 kJ·mol^–1
- Gibbs energy of transfer of RST from neat water to the mixture ([3]; w1 = 0.30 PEG400): –5.49 kJ·mol^–1
- ΔsolnG°, standard Gibbs free energy of dissolution ([3]; w1 = 0.30 PEG400): 26.86 kJ·mol^–1
- Gibbs energy of transfer of RST from neat water to the mixture ([3]; w1 = 0.40 PEG400): –7.93 kJ·mol^–1
- ΔsolnG°, standard Gibbs free energy of dissolution ([3]; w1 = 0.40 PEG400): 24.42 kJ·mol^–1
- Gibbs energy of transfer of RST from neat water to the mixture ([3]; w1 = 0.50 PEG400): –8.49 kJ·mol^–1
- ΔsolnG°, standard Gibbs free energy of dissolution ([3]; w1 = 0.50 PEG400): 23.87 kJ·mol^–1
- Gibbs energy of transfer of RST from neat water to the mixture ([3]; w1 = 0.60 PEG400): –8.94 kJ·mol^–1
- ΔsolnG°, standard Gibbs free energy of dissolution ([3]; w1 = 0.60 PEG400): 23.42 kJ·mol^–1
- Gibbs energy of transfer of RST from neat water to the mixture ([3]; w1 = 0.70 PEG400): –9.46 kJ·mol^–1
- ΔsolnG°, standard Gibbs free energy of dissolution ([3]; w1 = 0.70 PEG400): 22.90 kJ·mol^–1
- Gibbs energy of transfer of RST from neat water to the mixture ([3]; w1 = 0.80 PEG400): –10.34 kJ·mol^–1
- ΔsolnG°, standard Gibbs free energy of dissolution ([3]; w1 = 0.80 PEG400): 22.02 kJ·mol^–1
- ΔsolnG°, standard Gibbs free energy of dissolution ([3]; w1 = 0.90 PEG400): 21.15 kJ·mol^–1
- Gibbs energy of transfer of RST from neat water to the mixture ([3]; w1 = 1.00 (neat PEG400)): –14.24 kJ·mol^–1
- ΔsolnG°, standard Gibbs free energy of dissolution ([3]; w1 = 1.00 (neat PEG400)): 18.12 kJ·mol^–1
